Marks after values point to notes of the source that are not given here.
Test system: subjects undergoing cataract extraction with lens replacement (CELR)
Assay: Phase 3: adverse events (safety analysis set)
Format: in vivo, human
Description: The safety of MELT-300 was performed at baseline, in the course of surgery (intraoperatively), postoperatively on Day 1, and on Day 3+1 day post dose of study medication. Safety assessment included monitoring of AEs, vital sign measurements, and physical examinations.
An overview of adverse events (AEs) is provided in TABLE 57 for the safety analysis set. Reported data includes an overall summary of the presence of any AEs, treatment-emergent ocular adverse events (TEAEs), treatment-related TEAEs, TEAE of special interest (TEAESI), serious AEs (SEAs), and treatment-emergent SAEs (TESAE). Categories were not mutually exclusive. Results include the number of subjects, percent of subjects, and number of events in each category, respectively. A summary of treatment-emergence adverse events (TEAEs) by location, system organ class, and preferred term for the safety analysis set is provided in TABLE 58. A summary of treatment-related treatment-emergent adverse events (TRTEAEs) by system organ class, and preferred term for the safety analysis set is provided in TABLE 59. No SAEs (overall), TESAEs, or treatment-related TESAEs were observed. No SAEs resulting in death or discontinuation of the study was observed.

[1] = Location: Ocular, Safety analysis set
[2] = Location: Overall, Safety Analysis Set
[3] = Location: Overall, Safety analysis set

Compound: Cc1ncc2n1-c1ccc(Cl)cc1C(c1ccccc1F)=NC2 [Midazolam, 8-chloro-6-(2-fluorophenyl)-1-methyl-4H-imidazo[1,5-a][1,4]benzodiazepine]
- Any Unexpected Treatment-Related TEAE, subjects [1]: 0 n (%)
- TEAESI: Abuse-related AEs, events [1]: 0 #
- TEAESI: Abuse-related AEs, subjects [1]: 0 n (%)
- TEAESI: Cardiovascular AEs, events [1]: 0 #
- TEAESI: Cardiovascular AEs, subjects [1]: 1 (1.1) n (%)
- TEAESI: Ketamine emergence delirium, events [1]: 0 #
- TEAESI: Ketamine emergence delirium, subjects [1]: 0 n (%)
- TEAESI: Neurocognitive AEs, events [1]: 0 #
- TEAESI: Neurocognitive AEs, subjects [1]: 0 n (%)
- TEAESI: Oral/pharyngeal AEs, events [1]: 0 #
- TEAESI: Oral/pharyngeal AEs, subjects [1]: 0 n (%)
- TEAESI: Oversedation requiring the use of flumazenil, events [1]: 0 #
- TEAESI: Oversedation requiring the use of flumazenil, subjects [1]: 0 n (%)
- TEAESI: Respiratory AEs, events [1]: 0 #
- TEAESI: Respiratory AEs, subjects [1]: 1 (1.1) n (%)
- TEAE: Abnormal sensation in eye [2]: 0 n
- TEAE: Amnesia [2]: 0 n
- TEAE: Anxiety [2]: 0 n
- TEAE: Back pain [2]: 0 n
- TEAE: Balance disorder [2]: 0 n
- TEAE: Blood pressure increased [2]: 0 n
- TEAE: Blood pressure systolic increased [2]: 0 n
- TEAE: Bradycardia [2]: 0 n
- TEAE: Corneal abrasion [2]: 0 n
- TEAE: Corneal oedema [2]: 0 n
- TEAE: Cough [2]: 0 n
- TEAE: Dental local anaesthesia [2]: 0 n
- TEAE: Diplopia [2]: 0 n
- TEAE: Dizziness [2]: 0 n
- TEAE: Fatigue [2]: 0 n
- TEAE: Gastrointestinal disorders (System Organ Class) [2]: 0 n
- TEAE: Glare [2]: 0 n
- TEAE: Hiccups [2]: 0 n
- TEAE: Hypertension [2]: 0 n
- TEAE: Hypoaesthesia oral [2]: 0 n
- TEAE: Infections and infestations (System Organ Class) [2]: 0 n
- TEAE: Injury, poisoning and procedural complications (System Organ Class) [2]: 0 n
- TEAE: Instillation site pain [2]: 0 n
- TEAE: Investigations (System Organ Class) [2]: 0 n
- TEAE: Lacrimation increased [2]: 0 n
- TEAE: Lethargy [2]: 0 n
- TEAE: Musculoskeletal and connective tissue disorders (System Organ Class) [2]: 0 n
- TEAE: Myalgia [2]: 0 n
- TEAE: Nasal Discomfort [2]: 0 n
- TEAE: Nausea [2]: 0 n
- TEAE: Neck pain [2]: 0 n
- TEAE: Ocular discomfort [2]: 0 n
- TEAE: Oxygen saturation decreased [2]: 0 n
- TEAE: Photophobia [2]: 0 n
- TEAE: Photopsia [2]: 0 n
- TEAE: Post procedural hypotension [2]: 0 n
- TEAE: Procedural nausea [2]: 0 n
- TEAE: Procedural pain [2]: 0 n
- TEAE: Procedural vomiting [2]: 0 n
- TEAE: Product after taste [2]: 0 n
- TEAE: Product issues (System Organ Class) [2]: 0 n
- TEAE: Psychiatric disorders (System Organ Class) [2]: 0 n
- TEAE: Pyrexia [2]: 0 n
- TEAE: Sinusitis [2]: 0 n
- TEAE: Surgical and medical procedures (System Organ Class) [2]: 0 n
- TEAE: Taste disorder [2]: 0 n
- TEAE: Vascular disorders (System Organ Class) [2]: 0 n
- TEAE: Visual field defect [2]: 0 n
- TEAE: Visual impairment [2]: 0 n
- Any AE, events [3]: 24 #
- Any AE, subjects [3]: 16 (18.0) n (%)
- Any Grade 3+ TEAE, events [3]: 0 #
- Any Grade 3+ TEAE, subjects [3]: 0 n (%)
- Any SAE, events [3]: 0 #
- Any SAE, subjects [3]: 0 n (%)
- Any TEAE Resulting in Death, events [3]: 0 #
- Any TEAE Resulting in Death, subjects [3]: 0 n (%)
- Any TEAE Resulting in Study Drug Interruption, events [3]: 0 #
- Any TEAE Resulting in Study Drug Interruption, subjects [3]: 0 n (%)
- Any TEAE Resulting in Study Drug Withdrawal, events [3]: 0 #
- Any TEAE Resulting in Study Drug Withdrawal, subjects [3]: 0 n (%)
- Any TEAE, events [3]: 20 #
- Any TEAE, subjects [3]: 13 (14.6) n (%)
- Any TEAESI, events [3]: 2 #
- Any TEAESI, subjects [3]: 2 (2.2) n (%)
- Any TESAE, events [3]: 0 #
- Any TESAE, subjects [3]: 0 n (%)
- Any Treatment-Related TEAE Resulting in Death, events [3]: 0 #
- Any Treatment-Related TEAE Resulting in Death, subjects [3]: 0 n (%)
- Any Treatment-Related TEAE, events [3]: 4 #
- Any Treatment-Related TEAE, subjects [3]: 2 (2.2) n (%)
- Any Treatment-Related TEAESI, events [3]: 1 #
- Any Treatment-Related TEAESI, subjects [3]: 1 (1.1) n (%)
- Any Treatment-Related TESAE, events [3]: 0 #
- Any Treatment-Related TESAE, subjects [3]: 0 n (%)
- Any Unexpected TEAE, events [3]: 9 #
- Any Unexpected TEAE, subjects [3]: 6 (6.7) n (%)
- Any Unexpected Treatment-Related TEAE, events [3]: 0 #
- Any Unexpected Treatment-Related TEAE, subjects [3]: 0 n (%)
- TEAESI: Abuse-related AEs, events [3]: 0 #
- TEAESI: Abuse-related AEs, subjects [3]: 0 n (%)
- TEAESI: Cardiovascular AEs, events [3]: 1 #
- TEAESI: Cardiovascular AEs, subjects [3]: 1 (1.1) n (%)
- TEAESI: Ketamine emergence delirium, events [3]: 0 #
- TEAESI: Ketamine emergence delirium, subjects [3]: 0 n (%)
- TEAESI: Neurocognitive AEs, events [3]: 0 #
- TEAESI: Neurocognitive AEs, subjects [3]: 0 n (%)
- TEAESI: Oral/pharyngeal AEs, events [3]: 0 #
- TEAESI: Oral/pharyngeal AEs, subjects [3]: 0 n (%)
- TEAESI: Oversedation requiring the use of flumazenil, events [3]: 0 #
- TEAESI: Oversedation requiring the use of flumazenil, subjects [3]: 0 n (%)
- TEAESI: Respiratory AEs, events [3]: 1 #
- TEAESI: Respiratory AEs, subjects [3]: 1 (1.1) n (%)
- Treatment-related TEAE: Anxiety (Safety Analysis Set): 0 n
- Treatment-related TEAE: Blood pressure increased (Safety Analysis Set): 0 n
- Treatment-related TEAE: Bradycardia (Safety Analysis Set): 0 n
- Treatment-related TEAE: Cardiac disorders (System Organ Class) (Safety Analysis Set): 0 n
- Treatment-related TEAE: Dental local anaesthesia (Safety Analysis Set): 0 n
- Treatment-related TEAE: Dizziness (Safety Analysis Set): 0 n
- Treatment-related TEAE: Eye disorders (System Organ Class) (Safety Analysis Set): 0 n
- Treatment-related TEAE: Hiccups (Safety Analysis Set): 0 n
- Treatment-related TEAE: Injury, poisoning and procedural complications (System Organ Class) (Safety Analysis Set): 0 n
- Treatment-related TEAE: Investigations (System Organ Class) (Safety Analysis Set): 0 n
- Treatment-related TEAE: Lethargy (Safety Analysis Set): 0 n
- Treatment-related TEAE: Oxygen saturation decreased (Safety Analysis Set): 0 n
- Treatment-related TEAE: Procedural nausea (Safety Analysis Set): 0 n
- Treatment-related TEAE: Procedural vomiting (Safety Analysis Set): 0 n
- Treatment-related TEAE: Product after taste (Safety Analysis Set): 0 n
- Treatment-related TEAE: Product issues (System Organ Class) (Safety Analysis Set): 0 n
- Treatment-related TEAE: Psychiatric disorders (System Organ Class) (Safety Analysis Set): 0 n
- Treatment-related TEAE: Surgical and medical procedures (System Organ Class) (Safety Analysis Set): 0 n
- Treatment-related TEAE: Tachycardia (Safety Analysis Set): 0 n
- Treatment-related TEAE: Visual impairment (Safety Analysis Set): 0 n

Reference: US20250381198A1 (Melt Pharmaceuticals, Inc., priority 2024, published 2025)
